Measurements reported in patent US20230321100A1, “CD73 INHIBITOR AND APPLICATION THEREOF IN MEDICINE” (BETTA PHARMACEUTICALS CO., LTD, priority 2020, published 2023).

Biological target: T1, CD73 (Calu-6 cells) (Homo sapiens, UniProt P21589)
T1 construct: endogenous in cells; host or cells: Calu-6 cells
T1 sequence (P21589 27-549): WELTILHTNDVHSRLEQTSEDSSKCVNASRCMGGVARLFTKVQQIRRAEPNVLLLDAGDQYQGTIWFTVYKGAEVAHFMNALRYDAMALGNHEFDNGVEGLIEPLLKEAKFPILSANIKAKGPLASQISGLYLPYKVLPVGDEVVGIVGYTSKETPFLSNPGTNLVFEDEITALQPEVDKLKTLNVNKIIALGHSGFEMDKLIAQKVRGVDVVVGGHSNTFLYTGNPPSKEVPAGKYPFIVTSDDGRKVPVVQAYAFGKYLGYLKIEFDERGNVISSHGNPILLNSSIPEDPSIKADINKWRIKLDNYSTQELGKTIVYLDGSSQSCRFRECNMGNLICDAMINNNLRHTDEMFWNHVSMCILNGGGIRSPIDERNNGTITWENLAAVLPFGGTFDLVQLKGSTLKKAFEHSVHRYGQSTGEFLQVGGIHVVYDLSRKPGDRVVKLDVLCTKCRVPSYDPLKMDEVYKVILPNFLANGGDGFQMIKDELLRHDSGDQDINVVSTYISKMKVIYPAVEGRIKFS
Assay: Enzymatic activity detection at the cellular level (Calu-6 cells, AMP substrate, Cell-titer Glo luminescence)
Type: cell-based
Conditions: enzymatic IC50 at the Calu-6 cell level, 30 min pre-incubation, 120 min at 37° C.
Experimental: The Calu-6 cells were digested and re-suspended using TM buffer (25 mM Tris, 5 mM MgCl2, pH 7.5). Calu-6 cell suspension was seeded into 96 well cell culture plate, and the number of cells per well was 2.5×10^4, adding volume of 100 μL/well. Compound solution with gradient concentration was prepared by TM buffer, and 50 μL DMSO solution with different concentration was added into each pore cell. […] Pre-incubated in a shaker at 37° C. for 30 min. Each well was added with 50 μL 800 μM AMP solution. The shaker at 37° C. for 120 min was continued to incubate, then the 96-well plates were centrifuged and 50 μL supernatant was transferred to the new 96-well plates. […] The luminescence value was read by the multi-function enzymatic reader and converted into the inhibition percentage: Inhibition percentage=(1−reading/Max)*100. The “maximum value” was DMSO control. IC50 values were obtained by curve fitting with GraphPad Prism software.

| IC50 | SMILES |
| --- | --- |
| 5.9 nM | N#Cc1nnc(-c2c[nH]c(=O)[nH]c2=O)cc1C1CC1c1ccccc1 (stereo not shown) [Compound 34, 6-(2,4-dioxo-1,2,3,4-tetrahydropyrimidin-5-yl)-4-(2-phenylcyclopropyl)pyridazine-3-carbonitrile] |
| 1.1 nM | N#Cc1nnc(-c2c[nH]c(=O)[nH]c2=O)cc1C1CC1c1ccc(F)cc1 (stereo not shown) [Compound 35, 6-(2,4-dioxo-1,2,3,4-tetrahydropyrimidin-5-yl)-4-(2-(4-fluorophenyl)cyclopropyl)pyridazine-3-carbonitrile] |
| 1.9 nM | N#Cc1nnc(-c2c[nH]c(=O)[nH]c2=O)cc1C1CC1c1ccc(Cl)cc1 (stereo not shown) [Compound 36, 4-(2-(4-chlorophenyl)cyclopropyl)-6-(2,4-dioxo-1,2,3,4-tetrahydropyrimidin-5-yl)pyridazine-3-carbonitrile] |
| 1.2 nM | O=c1[nH]cc(-c2cc([C@H]3C[C@@H]3C#Cc3ccncc3)c(Cl)nn2)c(=O)[nH]1 [Compound 37, 5-(6-chloro-5-((1S,2S)-2-(pyridin-4-ylethynyl)cyclopropyl)pyridazin-3-yl)pyrimidine-2,4(1H, 3H)-dione] |
| 3.7 nM | N#Cc1ccc(C#C[C@H]2C[C@@H]2c2cc(-c3c[nH]c(=O)[nH]c3=O)nnc2Cl)nc1 [Compound 38, 6-(((1S,2S)-2-(3-chloro-6-(2,4-dioxo-1,2,3,4-tetrahydropyrimidin-5-yl)pyridazin-4-yl)cyclopropyl)ethynyl)nicotinonitrile] |
| 2.5 nM | C=C[C@H]1C[C@@H]1c1cc(-c2c[nH]c(=O)[nH]c2=O)nnc1OC [Compound 39, 5-(6-methoxy-S-((1S,2R)-2-vinylcyclopropyl)pyridazin-3-yl)pyrimidine-2,4(1H,3H)-dione] |
| 7.5 nM | Cc1nnc(-c2c[nH]c(=O)[nH]c2=O)cc1[C@H]1C[C@@H]1C#Cc1ccccc1 [Compound 41, 5-(6-methyl-5-((1S,2S)-2-(phenylethynyl)cyclopropyl)pyridazin-3-yl)pyrimidine-2,4(1H,3H)-dione] |
| 4.4 nM | O=c1[nH]cc(-c2cc([C@H]3C[C@@H]3C#Cc3cccnc3)c(Cl)nn2)c(=O)[nH]1 [Compound 42] |
| 3.7 nM | O=c1[nH]cc(-c2cc([C@H]3C[C@@H]3C#Cc3ccccn3)c(Cl)nn2)c(=O)[nH]1 [Compound 43] |
| 3.1 nM | COc1ccc(C#C[C@H]2C[C@@H]2c2cc(-c3c[nH]c(=O)[nH]c3=O)nnc2Cl)cc1 [Compound 44] |
| 1.5 nM | N#Cc1ccc(C#C[C@H]2C[C@@H]2c2cc(-c3c[nH]c(=O)[nH]c3=O)nnc2Cl)cc1 [Compound 45] |
| 4.4 nM | N#Cc1ccccc1C#C[C@H]1C[C@@H]1c1cc(-c2c[nH]c(=O)[nH]c2=O)nnc1Cl [Compound 46] |
| 7.8 nM | O=c1[nH]cc(-c2cc([C@H]3C[C@@H]3C#Cc3ccc(Cl)cc3)c(Cl)nn2)c(=O)[nH]1 [Compound 47] |
| 3.8 nM | O=c1[nH]cc(-c2cc([C@H]3C[C@@H]3C#Cc3ccc(F)cc3)c(Cl)nn2)c(=O)[nH]1 [Compound 48] |
| 12.6 nM | COc1nnc(-c2c[nH]c(=O)[nH]c2=O)cc1[C@H]1C[C@@H]1C#Cc1ccc(C#N)cc1 [Compound 50] |
| 4.3 nM | COc1nnc(-c2c[nH]c(=O)[nH]c2=O)cc1[C@H]1C[C@@H]1C#Cc1cccc(C#N)c1 [Compound 51] |
| 5.8 nM | COc1nnc(-c2c[nH]c(=O)[nH]c2=O)cc1[C@H]1C[C@@H]1C#Cc1ccccn1 [Compound 52] |
| 2.4 nM | COc1nnc(-c2c[nH]c(=O)[nH]c2=O)cc1[C@H]1C[C@@H]1C#Cc1cccnc1 [Compound 53] |
| 8.2 nM | N#Cc1nnc(-c2c[nH]c(=O)[nH]c2=O)cc1[C@H]1C[C@@H]1C#Cc1ccccc1 [Compound 54] |
| 5.6 nM | N#Cc1ccc(C#C[C@H]2C[C@@H]2c2cc(-c3c[nH]c(=O)[nH]c3=O)nnc2C#N)cc1 [Compound 55] |
| 19.4 nM | N#Cc1nnc(-c2c[nH]c(=O)[nH]c2=O)cc1[C@H]1C[C@@H]1C#Cc1ccccn1 [Compound 56] |
| 9.9 nM | O=c1[nH]cc(-c2cc([C@H]3C[C@@H]3c3ccccc3)cnn2)c(=O)[nH]1 [Compound 59, 5-(5-((1S,2S)-2-phenylcyclopropyl)pyridazin-3-yl)pyrimidine-2,4(1H,3H)-dione] |

| IC50 | SMILES |
| --- | --- |
| 23.3 nM | O=c1[nH]cc(-c2cc([C@H]3C[C@@H]3c3nc4ccccc4[nH]3)c(Cl)nn2)c(=O)[nH]1 [Compound 60, 5-(5-((1S,2S)-2-(1H-benzo[d]imidazol-2-yl)cyclopropyl)-6-chloropyridazin-3-yl)pyrimidine-2, 4(1H,3H)-dione] |
| 19 nM | Cc1ccc(C2CC2c2cc(-c3c[nH]c(=O)[nH]c3=O)nnc2Cl)c(C)c1 (stereo not shown) [Compound 61] |
| 5.6 nM | Cc1ccc(C2CC2c2cc(-c3c[nH]c(=O)[nH]c3=O)nnc2Cl)cc1C (stereo not shown) [Compound 62] |
| 19 nM | Cc1cc(C)cc(C2CC2c2cc(-c3c[nH]c(=O)[nH]c3=O)nnc2Cl)c1 (stereo not shown) [Compound 63] |
| 22.3 nM | CC(C)c1ccc(C2CC2c2cc(-c3c[nH]c(=O)[nH]c3=O)nnc2Cl)cc1 (stereo not shown) [Compound 64] |
| 4.7 nM | Cc1ccc(C2CC2c2cc(-c3c[nH]c(=O)[nH]c3=O)nnc2Cl)cc1F (stereo not shown) [Compound 65] |
| 3.9 nM | O=c1[nH]cc(-c2cc(C3CC3c3ccc(C(F)(F)F)cc3)c(Cl)nn2)c(=O)[nH]1 (stereo not shown) [Compound 66] |
| 7.3 nM | O=c1[nH]cc(-c2cc(C3CC3c3cccc(C(F)(F)F)c3)c(Cl)nn2)c(=O)[nH]1 (stereo not shown) [Compound 67] |
| 15 nM | O=c1[nH]cc(-c2cc(C3CC3c3ccc(C(F)(F)F)c(F)c3)c(Cl)nn2)c(=O)[nH]1 (stereo not shown) [Compound 68] |
| 13.4 nM | O=c1[nH]cc(-c2cc(C3CC3c3ccc(F)c(C(F)(F)F)c3)c(Cl)nn2)c(=O)[nH]1 (stereo not shown) [Compound 69] |
| 7 nM | O=c1[nH]cc(-c2cc(C3CC3c3cccc(F)c3F)c(Cl)nn2)c(=O)[nH]1 (stereo not shown) [Compound 70] |
| 4.6 nM | O=c1[nH]cc(-c2cc(C3CC3c3ccc(F)cc3F)c(Cl)nn2)c(=O)[nH]1 (stereo not shown) [Compound 71] |
| 4.9 nM | O=c1[nH]cc(-c2cc(C3CC3c3c(F)cc(F)cc3F)c(Cl)nn2)c(=O)[nH]1 (stereo not shown) [Compound 72] |
| 5.9 nM | O=c1[nH]cc(-c2cc(C3CC3c3cc(F)c(F)cc3F)c(Cl)nn2)c(=O)[nH]1 (stereo not shown) [Compound 73] |
| 2.7 nM | O=Cc1ccc(C2CC2c2cc(-c3c[nH]c(=O)[nH]c3=O)nnc2Cl)cc1 (stereo not shown) [Compound 74] |
| 32 nM | O=C(O)c1cccc(C2CC2c2cc(-c3c[nH]c(=O)[nH]c3=O)nnc2Cl)c1 (stereo not shown) [Compound 75] |
| 51.9 nM | O=c1[nH]cc(-c2cc(C3CC3c3ccc(-c4ccccc4)cc3)c(Cl)nn2)c(=O)[nH]1 (stereo not shown) [Compound 76] |
| 7.2 nM | COc1nnc(-c2c[nH]c(=O)[nH]c2=O)cc1C1CC1c1ccc(C#N)cc1 (stereo not shown) [Compound 77, 4-(2-(6-(2,4-dioxo-1,2,3,4-tetrahydropyrimidin-5-yl)-3-methoxypyridazin-4-yl)cyclopropyl)benzonitrile] |
| 8.5 nM | N#Cc1ccc(C2CC2c2cc(-c3c[nH]c(=O)[nH]c3=O)nnc2C#N)cc1 (stereo not shown) [Compound 78, 4-(2-(4-cyanophenyl)cyclopropyl)-6-(2,4-dioxo-1,2,3,4-tetrahydropyrimidin-5-yl)pyridazine-3-carbonitrile] |
| 114 nM | Cc1nnc(-c2c[nH]c(=O)[nH]c2=O)cc1C1CC1Cc1ccccc1 (stereo not shown) [Compound D2, reference compound] |
| 1430 nM | O=c1[nH]cc(-c2cc([C@@H]3C[C@H]3c3ccccc3)c(Cl)nn2)c(=O)[nH]1 [Compound D3, reference compound] |

System: not listed separately
Assay: Pharmacokinetic evaluation in mice after intragastric administration (plasma concentration by LC/MS/MS)
Type: in vivo
Conditions: mouse, Balb/C female mice, single PO 10 mg/kg
Experimental: LC/MS/MS method was used to determine the plasma concentration of the embodiment compound at different time after intragastric administration in mice. Study the pharmacokinetic behavior of the compound in mice and evaluate its pharmacokinetic characteristics.
Methods: A single PK study (PO, 10 mg/kg) was performed on healthy Balb/C female mice (about 20 g) purchased from Beijing Vital River Laboratory Animal Technology Co., Ltd. About 1 hour before administration, a certain amount of drug was weighed and added with 5% DMSO and 95% hydroxypropyl betascyclodextrin (HP-β-CD) solution to form a colorless and clear solution. HP-β-CD solution is a 20% HP-β-CD solution prepared by adding HP-p-CD powder into 0.9% normal saline. Intragastric administration was performed at the dosage volume of 10 mL/kg, and blood was collected through the orbital venous plexus of mice. The blood collection time points were as follows: At 0.25, 0.5, 1.0, 2.0, 4.0, 7.0 and 24.0 hours before and after drug administration, 100 uL whole blood to K2EDTA anticoagulant tubes were taken at each time point, and the collected whole blood samples were centrifuged at 4000 rpm for 10 min. The plasma was separated and stored in the refrigerator at −80° C.
The above plasma samples were added to the pure acetonitrile solution containing the inner target for protein precipitation pre-treatment, centrifugation was performed at 10000 rpm for 10 min, and the supernatant was taken, mixed with water 1:1, and 10 μL to LC-MS/MS was used for detection. The linear range of compounds detected in plasma samples was 1-1000 ng/mL, and the data results were as follows:
The compound of the invention has good pharmacokinetic absorption and obvious pharmacokinetic advantages.

| AUC | Cmax | Tmax | SMILES |
| --- | --- | --- | --- |
| 677 ng·h/mL | 547 ng/mL | 30 min | Cc1nnc(-c2c[nH]c(=O)[nH]c2=O)cc1[C@H]1C[C@@H]1C(C)C [Compound D1, reference compound] |
